In patent US8921124B2, “Pyrazole-based cyanine dye” (Wako Pure Chemical Industries, Ltd., priority 2006, dated 2014):

Key:
[1] = Fluorescence characteristics (max. absorption, excitation and fluorescence wavelengths, molar absorption coefficient); type: physicochemical
Procedure: Fluorescence characteristics are shown below.
(§1) Into 1 mL of purified water, Cy5 for labeling 1 mg of protein (manufactured by GE Healthcare Bioscience Biohealth Co., Ltd.), was dissolved. This solution was diluted 200 times with a 50 mM phosphoric acid buffer solution (pH 7.5) to measure OD value (0.1020).
(§2) Concentration of a Cy5 solution was determined from this OD value and molar absorption coefficient (ε=250,000), [described in a general product catalogue 2006 “7-4” of GE Healthcare Bioscience Co., Ltd.]), (0.408 μM). Then fluorescence was measured using the present solution.

[2] = Relative fluorescence intensity, roughly calculated relative to Cy5 per 1 μM as 100; type: physicochemical
Procedure: Relative fluorescence intensity of a compound of the present invention was roughly calculated relative to fluorescence intensity of Cy5, which is a conventional cyanine dye.
First, fluorescence intensity of Cy5 per 1 μM was measured from fluorescence intensity of Cy5, and relative fluorescence intensity of the compound of the present invention was roughly calculated relative to this fluorescence intensity value as 100.
as §1, §2
Relative fluorescence intensities of the compounds (13), (21), (32) and (38) of the present invention were roughly estimated relative to fluorescence intensity of Cy5 per 1 μM, obtained in Example 8, (1), as 100.
Relative fluorescence intensity of a compound of the present invention was roughly calculated based on fluorescence intensity of Cy5, which is a conventional cyanine dye derivative.
First, fluorescence intensity of Cy5 per 1 μM was measured from fluorescence intensity of Cy5, and relative fluorescence intensity of the compound of the present invention was roughly calculated based on this fluorescence intensity value as 100.
Into 1 mL of purified water, Cy5 (manufactured by GE Healthcare Bioscience Biohealth Co., Ltd.) for labeling 1 mg of protein, was dissolved. This solution was diluted 200 times with a 50 mM phosphoric acid buffer solution (pH 7.5) to measure OD value (0.1020).
Concentration of a Cy5 solution was determined from this OD value and molar absorption coefficient (E=250,000, [described in a general product catalogue 2006 “7-4” of GE Healthcare Bioscience Co., Ltd.]), (0.408 μM).
Then fluorescence of Cy5 was measured using the present solution.
Relative fluorescence intensity of the compound (40) of the present invention, obtained in Example 11 and the compound (43) of the present invention, obtained in Example 12 were roughly calculated, relative to fluorescence intensity per 1 μM of Cy5, obtained in Example 14, (1), as 100.

[3] = described in general product catalogue 2006 of GE Healthcare Bioscience; in M-1cm-1; cited from earlier work
[4] = 0.408 μM solution in 50 mM phosphoric acid buffer solution (pH 7.5)
[5] = Cy5 solution 0.408 μM in 50 mM phosphoric acid buffer solution (pH 7.5)

In the case of CCN1/C(=C/C=C/C=C/C2=[N+](CCCCCC(=O)O)c3ccc(S(=O)(=O)O)cc3C2(C)C)C(C)(C)c2cc(S(=O)(=O)[O-])ccc21 [Cy5], the “Max. excitation wavelength [Ex(max)]” value [1, 4] is reported as 649 nm, the “Max. fluorescence wavelength [Em(max)]” value [1, 4] is reported as 670 nm and the “Max. excitation wavelength [Ex(max)]” value [1, 5] is reported as 649 nm. For the same molecule, the “Max. fluorescence wavelength [Em(max)]” value [1, 5] was 670 nm, the Fluorescence intensity [2, 5] was 3,161 and the “Fluorescence intensity of Cy5/1 μM” value ([2]; per 1 μM, from intensity at 0.408 μM) was 7,747. For the same molecule, the “Fluorescence intensity of Cy5/1 μM” value ([2]; per 1 μM, from the intensity of the 0.408 μM solution) was 7,747, the “Relative fluorescence intensity [relative to fluorescence intensity of Cy5 (1 μM) as 100]” value ([2]; roughly calculated, Cy5 per 1 μM = 100) was 100 and the “Relative fluorescence intensity [relative to fluorescence intensity of Cy5 (1 μM) as 100]” value ([2]; roughly calculated; Cy5 per 1 μM = 100) was 100. The “molar absorption coefficient (ε)” value [3] was 250,000.
